{
  "source": "patent US7637980B2",
  "about": "“Method of increasing photosynthesis in plants comprising an exposure thereof to lipochitooligosaccharides and compositions therefor” (McGill University, priority 1999, dated 2009)",
  "system": "apple (cv Empire)",
  "assay": "Photosynthesis of field-grown apple after LCO spray",
  "format": "in vivo",
  "procedure": "These experiments were conducted at the horticultural research facility of McGill University, Ste-Anne-de-Bellevue, Quebec, Canada during July 2000. LCO of different concentrations (10^−8, and 10^−10M) were prepared as described above. Branches of apple (cv Empire) and Grapes (cv De Chaunac) were sprayed with LCO and the photosynthesis was observed every 24 h for five days with a Li-Cor 6400 portable photosynthesis system (Li-Cor Inc., USA). Each treatment was applied to three branches from the same plant. Care was taken to ensure that the branches were on the same level and orientation. Part of each branch was sprayed with LCO and the remaining part served as a control. The control portion of the branch was sprayed with distilled water containing the same amount of Tween 20 as the LCO treatment solution. Observations were taken on 15 leaves per replicate for each treatment. For both apple and grape the entire procedure was repeated twice on two different plants.",
  "data": [
    {"substance": "Nod Bj V (C18:1, MeFeu)", "values": [
      {"measurement": "Ci", "value": "without any effect"},
      {"measurement": "stomatal conductance", "value": "increases"},
      {"measurement": "transpiration", "value": "increased"},
      {"measurement": "photosynthetic rate", "setting": "10^−8 M LCO, five days after treatment", "value": 14.1, "unit": "μmol CO2 m^−2s^−1"}
    ]}
  ]
}
